Read-outs that look alike come from different tables or passages of the source. Numbered stars: 1 amine (or outer) side, 2 acyl side, 3 side chain; on linkers, the order of the positions; unused ones are H or OH. Square brackets hold non-standard residues; d marks the D form. Side chains are listed from the residue outwards. Peptide text beside a SMILES is read from it. * marks the point of attachment. C18 diacid = O=C(O)CCCCCCCCCCCCCCCCC(=O)*; γGlu = O=C(O)[C@H](CCC(=O)[*:2])N[*:1]; εLys = N[C@@H](CCCCN[*:1])C(=O)[*:2]; AEEA = NCCOCCOCC(=O)O; Aib = CC(C)(N)C(=O)O
Target: T1, human GLP-1 receptor (Homo sapiens, UniProt P43220)
T1 construct: expressed in transfected cells; host or cells: BHK cells, clone FCW467-12A/KZ10-1 (parent line BHKTS13), further transfected with CRE luciferase
T1 sequence (P43220 24-463): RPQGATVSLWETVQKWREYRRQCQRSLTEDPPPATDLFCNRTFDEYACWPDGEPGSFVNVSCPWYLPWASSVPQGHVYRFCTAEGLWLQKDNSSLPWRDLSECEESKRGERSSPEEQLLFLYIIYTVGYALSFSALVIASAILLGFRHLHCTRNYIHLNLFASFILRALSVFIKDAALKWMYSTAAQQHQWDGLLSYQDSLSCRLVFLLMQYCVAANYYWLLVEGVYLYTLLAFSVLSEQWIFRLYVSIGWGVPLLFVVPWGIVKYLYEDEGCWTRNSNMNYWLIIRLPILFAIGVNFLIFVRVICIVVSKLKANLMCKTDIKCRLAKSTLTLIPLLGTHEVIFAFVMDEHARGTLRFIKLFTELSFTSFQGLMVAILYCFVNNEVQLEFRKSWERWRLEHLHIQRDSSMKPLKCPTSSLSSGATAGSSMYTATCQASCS
Assay: In vitro potency (CRE luciferase; whole cells)
Assay type: cell-based
Parameters: EC50/pM (ratio 1% HSA/0% HSA): unit not given here
Conditions: for EC50: BHK cells; for EC50/pM (ratio 1% HSA/0% HSA): ratio of EC50 at 1% HSA to EC50 at 0% HSA
Method in brief: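 Stably transfected BHK cells carrying human GLP-1R and a CRE–firefly luciferase reporter, 5×10^3 cells/well in assay medium, run with 0% or 1% HSA in assay buffer.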

[1] = In vitro potency (CRE luciferase) EC50 (1% HSA), 1% HSA
[2] = 0% HSA, read-out: In vitro potency (CRE luciferase) EC50 (0% HSA)

EC50 [1] [nM]	EC50/pM (ratio 1% HSA/0% HSA)	EC50 [2] [nM]	SMILES	EC50 (In vitro potency (CRE luciferase) EC50 (0% HSA), 0% HSA) [nM]
6.19	276	0.022	CC[C@H](C)[C@H](NC(=O)[C@H](Cc1ccccc1)NC(=O)[C@H](CCC(=O)O)NC(=O)[C@H](CCCCNC(=O)[C@@H](N)CCCCNC(=O)[C@@H](N)CCCCNC(=O)CC[C@H](NC(=O)CCCCCCCCCCCCCCCCC(=O)O)C(=O)O)NC(=O)[C@H](C)NC(=O)[C@H](C)NC(=O)[C@H](CCC(N)=O)NC(=O)CNC(=O)[C@H](CCC(=O)O)NC(=O)[C@H](CC(C)C)NC(=O)[C@H](Cc1ccc(O)cc1)NC(=O)[C@H](CO)NC(=O)[C@H](CO)NC(=O)[C@@H](NC(=O)[C@H](CC(=O)O)NC(=O)[C@H](CO)NC(=O)[C@@H](NC(=O)[C@H](Cc1ccccc1)NC(=O)[C@@H](NC(=O)CNC(=O)[C@H](CCC(=O)O)NC(=O)C(C)(C)NC(=O)[C@@H](N)Cc1c[nH]cn1)[C@@H](C)O)[C@@H](C)O)C(C)C)C(=O)N[C@@H](C)C(=O)N[C@@H](Cc1c[nH]c2ccccc12)C(=O)N[C@@H](CC(C)C)C(=O)N[C@H](C(=O)N[C@@H](CCCNC(=N)N)C(=O)NCC(=O)N[C@@H](CCCNC(=N)N)C(=O)N[C@@H](CCCCNC(=O)[C@@H](N)CCCCNC(=O)[C@@H](N)CCCCNC(=O)CC[C@H](NC(=O)CCCCCCCCCCCCCCCCC(=O)O)C(=O)O)C(=O)O)C(C)C [Example 27, N^ε26-[(2S)-2-amino-6-[[(2S)-2-amino-6-[[(4S)-4-carboxy-4-(17-carboxyheptadecanoylamino)butanoyl]amino]hexanoyl]amino]hexanoyl], N^ε37-[(2S)-2-amino-6-[[(2S)-2-amino-6-[[(4S)-4-carboxy-4-(17-carboxyheptadecanoylamino)butanoyl]amino]hexanoyl]amino]hexanoyl]-[Aib^8,Arg^34,Lys^37]-GLP-1-(7-37)-peptide]	–
5.73	329	0.017	CC[C@H](C)[C@H](NC(=O)[C@H](Cc1ccccc1)NC(=O)[C@H](CCC(=O)O)NC(=O)[C@H](CCCCNC(=O)[C@@H](N)CCCCNC(=O)COCCOCCNC(=O)COCCOCCNC(=O)CC[C@H](NC(=O)CCCCCCCCCCCCCCCCC(=O)O)C(=O)O)NC(=O)[C@H](C)NC(=O)[C@H](C)NC(=O)[C@H](CCC(N)=O)NC(=O)[C@H](CCC(=O)O)NC(=O)[C@H](CCC(=O)O)NC(=O)[C@H](CC(C)C)NC(=O)[C@H](Cc1ccc(O)cc1)NC(=O)[C@H](CO)NC(=O)[C@H](CO)NC(=O)[C@@H](NC(=O)[C@H](CC(=O)O)NC(=O)[C@H](CO)NC(=O)[C@@H](NC(=O)[C@H](Cc1ccccc1)NC(=O)[C@@H](NC(=O)CNC(=O)[C@H](CCC(=O)O)NC(=O)C(C)(C)NC(=O)[C@@H](N)Cc1c[nH]cn1)[C@@H](C)O)[C@@H](C)O)C(C)C)C(=O)N[C@@H](C)C(=O)N[C@@H](Cc1c[nH]c2ccccc12)C(=O)N[C@@H](CC(C)C)C(=O)N[C@H](C(=O)N[C@@H](CCC(N)=O)C(=O)NCC(=O)N[C@@H](CCCNC(=N)N)C(=O)N[C@@H](CCCCNC(=O)[C@@H](N)CCCCNC(=O)COCCOCCNC(=O)COCCOCCNC(=O)CC[C@H](NC(=O)CCCCCCCCCCCCCCCCC(=O)O)C(=O)O)C(=O)O)C(C)C [Example 28, N^ε26-[(2S)-2-amino-6-[[2-[2-[2-[[2-[2-[2-[[(4S)-4-carboxy-4-(17-carboxyheptadecanoylamino)butanoyl]amino]ethoxy]ethoxy]acetyl]amino]ethoxy]ethoxy]acetyl]amino]hexanoyl], N^ε37-[(2S)-2-amino-6-[[2-[2-[2-[[2-[2-[2-[[(4S)-4-carboxy-4-(17-carboxyheptadecanoylamino)butanoyl]amino]ethoxy]ethoxy]acetyl]amino]ethoxy]ethoxy]acetyl]amino]hexanoyl]-[Aib^8,Glu^22,Gln^34, Lys^37]-GLP-1-(7-37)-peptide] (H-H[Aib]EGTFTSDVSSYLEEQAAK([εLys-AEEA-AEEA-γGlu-C18 diacid])EFIAWLVQGRK([εLys-AEEA-AEEA-γGlu-C18 diacid])-OH; N-terminus and C-terminus assumed)	–

SMILES	EC50 [1] [nM]	EC50/pM (ratio 1% HSA/0% HSA)	EC50 [2] [nM]	EC50 (In vitro potency (CRE luciferase) EC50 (0% HSA), 0% HSA) [nM]
CC[C@H](C)[C@H](NC(=O)[C@H](Cc1ccccc1)NC(=O)[C@H](CCC(=O)O)NC(=O)[C@H](CCCCNC(=O)[C@@H](N)CCCCNC(=O)[C@@H](N)CCCCNC(=O)CC[C@H](NC(=O)CCCCCCCCCCOc1ccc(C(=O)O)cc1)C(=O)O)NC(=O)[C@H](C)NC(=O)[C@H](C)NC(=O)[C@H](CCC(N)=O)NC(=O)CNC(=O)[C@H](CCC(=O)O)NC(=O)[C@H](CC(C)C)NC(=O)[C@H](Cc1ccc(O)cc1)NC(=O)[C@H](CO)NC(=O)[C@H](CO)NC(=O)[C@@H](NC(=O)[C@H](CC(=O)O)NC(=O)[C@H](CO)NC(=O)[C@@H](NC(=O)[C@H](Cc1ccccc1)NC(=O)[C@@H](NC(=O)CNC(=O)[C@H](CCC(=O)O)NC(=O)C(C)(C)NC(=O)[C@@H](N)Cc1c[nH]cn1)[C@@H](C)O)[C@@H](C)O)C(C)C)C(=O)N[C@@H](C)C(=O)N[C@@H](Cc1c[nH]c2ccccc12)C(=O)N[C@@H](CC(C)C)C(=O)N[C@H](C(=O)N[C@@H](CCCNC(=N)N)C(=O)NCC(=O)N[C@@H](CCCNC(=N)N)C(=O)N[C@@H](CCCCNC(=O)[C@@H](N)CCCCNC(=O)[C@@H](N)CCCCNC(=O)CC[C@H](NC(=O)CCCCCCCCCCOc1ccc(C(=O)O)cc1)C(=O)O)C(=O)O)C(C)C [Example 20, N^ε26-[(2S)-2-amino-6-[[(2S)-2-amino-6-[[(4S)-4-carboxy-4-[11-(4-carboxyphenoxy)undecanoylamino]butanoyl]amino]hexanoyl]amino]hexanoyl], N^ε37-[(2S)-2-amino-6-[[(2S)-2-amino-6-[[(4S)-4-carboxy-4-[11-(4-carboxyphenoxy)undecanoylamino]butanoyl]amino]hexanoyl]amino]hexanoyl]-[Aib^8,Arg^34,Lys^37]-GLP-1-(7-37)-peptide]	0.063	13	–	0.0049

Source: patent publication US10604554B2, “Double-acylated GLP-1 derivatives” (Novo Nordisk A/S, priority 2012, dated 2020)
